Legend:
Autotaxin (ATX) = Autotaxin (ATX) (Homo sapiens (Human), UniProt Q13822); test: ATX bioactivity assay (Amplex Red / choline oxidase / HRP fluorescence, LPC 16:0 substrate); type: biochemical; conditions: 30 min room temperature
Experimental: Effect Example 1 Bioactivity Assay
Preparation and Treatment
Stock Solution Preparation
A 10 mM DMSO stock solution was formulated for each compound. A 30 mM DMSO stock solution was formulated for positive control HA130.
The DMSO stock solutions were stored at room temperature in a desiccator for a short period of time or at −20° C. for a long period of time.
All compounds were serially 3-fold diluted in DMSO from 10 μM to the 10th concentration.
A 1000× positive control (10 mM, HA130) and a 1000× negative control (100% DMSO) were prepared.
The plates were shaken for 5 min.
Preparation of 1× Reaction Buffer:
5× reaction buffer and cold water were mixed well in a volume ratio of 1:4.
Preparation of 20 U/mL Choline Oxidase Stock Solution:
1 tube of choline oxide in a kit was dissolved in 1× reaction buffer. The aliquots were frozen at −20° C.
Preparation of 200 U/mL Horseradish Peroxidase (HRP) Stock Solution:
1 tube of HRP in a kit was dissolved in 1 mL of 1× reaction buffer. The aliquots were frozen at −20° C.
Preparation of 20 mM Amplex® Red Reagent (for Detection) Stock Solution
Amplex Red reagent and DMSO were equilibrated at room temperature. 1 tube of Amplex Red reagent in a kit was dissolved in 200 μL of DMSO.
a) 2×ATX ([…]), 2×HRP ([…]), 2× choline oxidase (0.2 U/mL) were added to 1× reaction buffer.
b) 20 μL of the reaction mixture was added to the plate (PE, 6007270) (refer to step a).
c) 40 nL of diluent was added to the plate using Echo (refer to “Preparation”).
d) 2×LPC (16:0) (60 mM) and 2× Amplex® Red ([…]) were prepared using 1× reaction buffer.
e) 20 μL of the mixture was added to the plate (refer to step d).
f) The plate was shaken for 30 s and allowed to stand at room temperature for 30 min.
g) The plate was examined using Envision, and the procedure was as follows: Excitation at 530 nm; and Emission at 590 nm.
Formula for Calculating % Inhibition (Percent Inhibition Rate) as Follows:
FLU: Fluorescence (fluorescence reading)
FLUpositive: Average fluorescence value in positive control wells (10 μM HA130) in the plate.
FLUvehicle: Average fluorescence value in negative control wells (0.1% DMSO) in the plate.
Calculation of IC50 and Dose-Response Curve:
IC50 of the compounds was calculated via a non-linear regression line (dose-variable slope) fitted using % inhibition and log of compound concentration. The software used was Graphpad 5.0. Y=Bottom+(Top−Bottom)/(1+10^((Log IC50−X)×Hill Slope))
X: log of inhibitor concentration

CYP3A4 = CYP3A4 (Homo sapiens (Human), UniProt P08684); test: Time-dependent inhibition of CYP3A4 (TDI assay, human liver microsomes); type: in vitro ADME; conditions: for CYP3A4 TDI % @ 10 μM: human liver microsomes, Midazolam substrate, 30 min with NADPH vs 0 min; for time-dependent inhibition on CYP3A4 (conclusion): conclusion drawn from Table 3, 10 μM
Experimental: Effect Example 3. Time-Dependent Inhibition of CYP3A4
1. Preheating potassium phosphate buffer (K-buffer), pH 7.4: 100 mM potassium phosphate buffer (K-buffer) was prepared by mixing 9.5 mL of solution A with 40.5 mL of solution B, diluting to 500 mL with ultrapure water, and then adjusting to pH 7.4 with KOH or H3PO4, wherein the solution A (1M potassium dihydrogenphosphate) was prepared by dissolving 136.5 g of potassium dihydrogenphosphate in […] of ultrapure water.
2. Preparation of human liver microsome suspension (1.3 mg/mL, 1.3×, stock: 20 mg/mL): 100 μL of human liver microsome suspension (20 mg/mL) was added into […] of K-buffer.
3. Preparation of NADPH solution (4.167 mg/mL, 5 mM): 8.3 mg of NADPH was added into 2 mL of buffer.
4. Preparation of substrate solution (1.5× final): 1.5 μL of 10 mM Midazolam was added to 998.5 μL of K-buffer to yield the substrate mixture.
5. Preparation of 100× test compound, reference and blank control solutions: 3 μL of 10 mM stock solution of test compound was added to 27 μL of ACN; 3 μL of positive control stock solution was added to 27 μL of ACN; and 3 μL of DMSO was added to 27 μL of ACN to serve as blank control.
6. Primary preheating system: An NADPH-free system for 0 min incubation: 78 μL of 1.3× human liver microsome solution (step 2) was mixed with 1 μL of the 100× stock solutions of positive control, test compound, or blank control (step 5); A system containing NADPH for 30 min incubation: 78 μL of 1.3× human liver microsome solution (step 2) was mixed with 1 μL of the 100× stock solutions of positive control, test compound, or blank control (step 5).
7. Secondary preheating system: 150 μL of the substrate solution prepared in step 4 was added into a deep well plate together with the NADPH solution from step 3
8. The samples were preheated for 10 min in a 37° C. water bath.
9. Reaction procedure: (1) reaction for 0 min: 21 μL of K-buffer was added to the primary preheating system and mixed well without incubation; 20 μL of the mixture was immediately transferred into the plate of the secondary preheating system; after mixing, the secondary system was incubated in a 37° C. water bath for 15 min, and 60 μL of the reaction mixture was added into 120 μL of acetonitrile containing internal standard to terminate the reaction; and (2) reaction for 30 min: 21 μL of NADPH was added into the primary preheating system for a 30-min incubation after mixing; 20 μL of the mixture was added into the secondary preheating system prior to mixing; the mixture was incubated in a 37° C. water bath for 15 min, and 60 μL of the reaction mixture was added into 120 μL of acetonitrile containing internal standard to terminate the reaction.
10. After termination, the samples were shaken on a shaker at 600 rpm for 10 min and centrifuged at 5594 g for 15 min prior to LC-MS/MS analysis.

Sequence of CYP3A4 (P08684 whole entry): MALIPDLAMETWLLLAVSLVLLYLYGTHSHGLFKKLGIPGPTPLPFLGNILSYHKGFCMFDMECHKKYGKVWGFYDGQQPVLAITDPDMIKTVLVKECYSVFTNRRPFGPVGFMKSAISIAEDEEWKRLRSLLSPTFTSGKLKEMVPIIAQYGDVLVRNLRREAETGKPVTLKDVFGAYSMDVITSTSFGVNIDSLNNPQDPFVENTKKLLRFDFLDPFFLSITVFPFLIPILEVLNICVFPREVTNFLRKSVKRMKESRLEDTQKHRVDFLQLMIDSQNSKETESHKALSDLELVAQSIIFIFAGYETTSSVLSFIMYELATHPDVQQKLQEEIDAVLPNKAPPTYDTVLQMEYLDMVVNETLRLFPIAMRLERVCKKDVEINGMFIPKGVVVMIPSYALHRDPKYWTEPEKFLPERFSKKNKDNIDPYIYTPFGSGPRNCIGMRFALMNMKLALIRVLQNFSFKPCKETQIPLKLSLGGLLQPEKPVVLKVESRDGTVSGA

Row | Structure (SMILES) | IC50 (Autotaxin (ATX)) [µM] | CYP3A4 TDI % @ 10 μM (CYP3A4) [%] | time-dependent inhibition on CYP3A4 (conclusion) (CYP3A4)
1 | CCn1nc2c(F)cc(N3CCN(CC(=O)N4CC(O)C4)CC3)cc2c1N(C)c1ccc(C#N)c(-c2ccc(F)cc2)n1 [Compound S-0030, 6-((2-ethyl-7-fluoro-5-(4-(2-(3-hydroxyazetidin-1-yl)-2-oxoethyl)piperazin-1-yl)-2H-indazol-3-yl)(methyl)amino)-2-(4-fluorophenyl)nicotinonitrile] | 0.407 |  | 
2 | CCc1nn2ccc(N3CCN(CC(=O)N4CC(O)C4)CC3)cc2c1N(C)c1nc(-c2ccc(F)cc2)c(C#N)s1 [Compound S-0040, 2-((2-ethyl-5-(4-(2-(3-hydroxyazetidin-1-yl)-2-oxoethyl)piperazin-1-yl)pyrazolo[1,5-a]pyridin-3-yl)(methyl)amino)-4-(4-fluorophenyl)thiazole-5-carbonitrile] | 0.767 |  | 
3 | CCc1nn2ccc(N3CCN(CC(=O)N4CC(O)C4)CC3)nc2c1N(C)c1nc(-c2ccc(F)cc2)c(C#N)s1 [Compound S-0041, 2-((2-ethyl-5-(4-(2-(3-hydroxyazetidin-1-yl)-2-oxoethyl)piperazin-1-yl)pyrazolo[1,5-a]pyrimidin-3-yl)(methyl)amino)-4-(4-fluorophenyl)thiazole-5-carbonitrile] |  | −4.00 | no time-dependent inhibition on CYP3A4
4 | CCn1nc2ncc(N3CCN(CC(=O)N4CC(O)C4)CC3)cc2c1N(C)c1nc(-c2ccc(F)cc2)c(C#N)s1 [Compound S-0043, 2-((2-ethyl-5-(4-(2-(3-hydroxyazetidin-1-yl)-2-oxoethyl)piperazin-1-yl)-2H-pyrazolo[3,4-b]pyridin-3-yl)(methyl)amino)-4-(4-fluorophenyl)thiazole-5-carbonitrile] |  | 12.38 | no time-dependent inhibition on CYP3A4
5 | CCn1nc2cnc(N3CCN(CC(=O)N4CC(O)C4)CC3)cc2c1N(C)c1nc(-c2ccc(F)cc2)c(C#N)s1 [Compound S-0044, 2-((2-ethyl-5-(4-(2-(3-hydroxyazetidin-1-yl)-2-oxoethyl)piperazin-1-yl)-2H-pyrazolo[3,4-c]pyridin-3-yl)(methyl)amino)-4-(4-fluorophenyl) thiazole-5-carbonitrile] |  | 15.3 | no time-dependent inhibition on CYP3A4
6 | CCc1nn2c(C)cc(N3CCN(CC(=O)N4CC(O)C4)CC3)nc2c1N(C)c1nc(-c2ccc(F)c(F)c2)c(C#N)s1 [Compound S-0068, 4-(3,4-difluorophenyl)-2-((2-ethyl-5-(4-(2-(3-hydroxyazetidin-1-yl)-2-oxoethyl)piperazin-1-yl)-7-methylpyrazolo[1,5-a]pyrimidin-3-yl)(methyl)amino) thiazole-5-carbonitrile] | 0.107 |  | 
7 | CCc1nn2c(C)cc(N3CCN(CC(=O)N4CC(O)C4)CC3)nc2c1N(CC)c1nc(-c2ccc(F)cc2)c(C#N)s1 [Compound S-0069, 2-(ethyl(2-ethyl-5-(4-(2-(3-hydroxyazetidin-1-yl)-2-oxoethyl)piperazine-1-yl)-7-methylpyrazolo[1,5-a]pyrimidin-3-yl)amino)-4-(4-fluorophenyl) thiazole-5-carbonitrile] | 0.043 |  | 
8 | CCc1nn2c(C)cc(N3CCN(CC(=O)N4CC(O)C4)C[C@H]3C)nc2c1N(C)c1nc(-c2ccc(F)cc2)c(C#N)s1 [Compound S-0070, (R)-2-((2-ethyl-5-(4-(2-(3-hydroxyazetidin-1-yl)-2-oxoethyl)-2-methylpiperazine-1-yl)-7-methylpyrazolo[1,5-a]pyrimidin-3-yl)(methyl)amino)-4-(4-fluorophenyl)thiazole-5-carbonitrile] | 0.036 |  | 
9 | CCc1nn2c(C)cc(N3CCN(CC(=O)N4CC(O)C4)C[C@@H]3C)nc2c1N(C)c1nc(-c2ccc(F)cc2)c(C#N)s1 [Compound S-0071, (S)-2-((2-ethyl-5-(4-(2-(3-hydroxyazetidin-1-yl)-2-oxoethyl)-2-methylpiperazin-1-yl)-7-methylpyrazolo[1,5-a]pyrimidin-3-yl)(methyl)amino)-4-(4-fluorophenyl)thiazole-5-carbonitrile] | 0.046 |  | 
10 | CCc1nn2c(C)cc(N3CCN(CC(=O)N4CC(O)C4)[C@H](C)C3)nc2c1N(C)c1nc(-c2ccc(F)cc2)c(C#N)s1 [Compound S-0074, (R)-2-((2-ethyl-5-(4-(2-(3-hydroxyazetidin-1-yl)-2-oxoethyl)-3-methylpiperazin-1-yl)-7-methylpyrazolo[1,5-a]pyrimidin-3-yl)(methyl)amino)-4-(4-fluorophenyl)thiazole-5-carbonitrile] | 0.207 |  | 
11 | CCc1nn2c(C)cc(N3CCN(CC(=O)N4CC(O)C4)[C@@H](C)C3)nc2c1N(C)c1nc(-c2ccc(F)cc2)c(C#N)s1 [Compound S-0075, (S)-2-((2-ethyl-5-(4-(2-(3-hydroxyazetidin-1-yl)-2-oxoethyl)-3-methylpiperazin-1-yl)-7-methylpyrazolo[1,5-a]pyrimidin-3-yl)(methyl)amino)-4-(4-fluorophenyl)thiazole-5-carbonitrile] | 0.088 |  | 
12 | CCc1nn2ccc(N3CCN(CC(=O)N4CC(O)C4)CC3)nc2c1N(CC)c1nc(-c2ccc(F)cc2)c(C#N)s1 [Compound S-0082, 2-(ethyl(2-ethyl-5-(4-(2-(3-hydroxyazetidin-1-yl)-2-oxoethyl)piperazin-1-yl)pyrazolo[1,5-a]pyrimidin-3-yl)amino)-4-(4-fluorophenyl)thiazole-5-carbonitrile] | 0.02 |  | 
13 | CCc1nn2ccc(N3CCN(CC(=O)N4CC(O)C4)C(=O)C3)nc2c1N(C)c1nc(-c2ccc(F)cc2)c(C#N)s1 [Compound S-0104CP, 2-((2-ethyl-5-(4-(2-(3-hydroxyazetidin-1-yl)-2-oxoethyl)-3-oxopiperazin-1-yl)pyrazolo[1,5-a]pyrimidin-3-yl)(methyl)amino)-4-(4-fluorophenyl)thiazole-5-carbonitrile] | 0.256 |  | 
14 | CCc1nn2ccc(N3CCN(CC(=O)N4CC(C)(O)C4)CC3)nc2c1N(C)c1nc(-c2ccc(F)cc2)c(C#N)s1 [Compound S-0120, 2-((2-ethyl-5-(4-(2-(3-hydroxy-3-methylazetidin-1-yl)-2-oxoethyl)piperazin-1-yl)pyrazolo[1,5-a]pyrimidin-3-yl)(methyl)amino)-4-(4-fluorophenyl)thiazole-5-carbonitrile] | 0.041 |  | 
